Experiment: Human HepG2 cell viability assay in 384 well format
Assay type: toxicity, cell-based
Design: dose 125 nL, time 70.5 hour; cytotoxicity at 70.5 h: concentration not given beside the values
Settings: HepG2 cells, read-out: Inhibition
In the case of COc1cccc2c1OCC(C(=O)N1CCC(N3CCOC3=O)CC1)C2 (stereo not given), the cytotoxicity at 70.5 h is reported as -8.52%.
Cn1cc(C(=O)N2CCC(Cc3nccs3)CC2)cn1 showed a cytotoxicity at 70.5 h of 22.3%.
In the case of CCOc1ccc(NC(=O)N2CCOC(C(N)=O)C2)cc1C (stereo not given), the cytotoxicity at 70.5 h is reported as 1.77%.
Work on CC1CN(C)CCN1C(=O)Nc1nc(-c2cccn2C)cs1 (stereo not given) yielded a cytotoxicity at 70.5 h of -13.9%.
O=S(=O)(C1CC1)N1CC[C@H]2OCC[C@@]2(COc2ncccc2F)C1 showed a cytotoxicity at 70.5 h of -12.6%.
For CN(CCS(=O)(=O)c1cc(Cl)ccc1Cl)CC(N)=O, the cytotoxicity at 70.5 h was -0.37%.
With CC(NS(C)(=O)=O)C(=O)N(C)Cc1csc(-c2ccccc2)n1 (stereo not given) the cytotoxicity at 70.5 h was -13.9%.
CN(CCc1ccncc1)c1cnn(C)c(=O)c1Br gave a cytotoxicity at 70.5 h of -24.9%.
Work on Cc1nc(CCNC(=O)C2CC(=O)N(C(C)(C)C)C2)sc1C (stereo not given) yielded a cytotoxicity at 70.5 h of -8.11%.
Work on CN1C(=O)CC(c2cnn(C)c2)C12CCN(C(=O)c1cscn1)CC2 (stereo not given) yielded a cytotoxicity at 70.5 h of -2.36%.
With CN(C)C(=O)CNC(=O)c1ccc2c(-c3nccs3)noc2c1 the cytotoxicity at 70.5 h was -3.55%.
Compound NC(=O)NCC(=O)N1CCC2(CC1)c1ccccc1CC2O (stereo not given) has a cytotoxicity at 70.5 h of -11.6%.
In the case of O=C(CCn1ccc2ccc(Br)cc21)NCc1ccc(C(=O)O)cc1, the cytotoxicity at 70.5 h is reported as -21.2%.
CNS(=O)(=O)c1ccc(C(=O)NC2CCOc3ccccc32)o1 (stereo not given) gave a cytotoxicity at 70.5 h of -1.45%.
CN(Cc1ccc(F)cc1)S(=O)(=O)N1CCOCC1 gave a cytotoxicity at 70.5 h of 6.44%.
Work on COCCN1CCC(NCc2cccnc2)C1 (stereo not given) yielded a cytotoxicity at 70.5 h of 2.68%.
With NCc1cn(CC2CCCN(C(=O)CC3=CCCCC3)C2)nn1 (stereo not given) the cytotoxicity at 70.5 h was -11.9%.
For CCOCC(=O)N1CCC[C@]2(C[C@@H](OCc3ccncc3)CO2)C1, the cytotoxicity at 70.5 h was -7.17%.
Compound CC(C)Oc1cccc(-c2nc3c([nH]2)CCCNC3=O)c1 has a cytotoxicity at 70.5 h of 5.17%.
In the case of c1cnc(N2CCCC3(COCCN(c4nncs4)C3)C2)cn1 (stereo not given), the cytotoxicity at 70.5 h is reported as -6.49%.
With Cc1nc(CNC2CCCN(c3cccnn3)C2)no1 (stereo not given) the cytotoxicity at 70.5 h was 22%.
Compound O=C(c1cccc(Cn2ccnc2)c1)N1CCCC(n2cccn2)C1 (stereo not given) has a cytotoxicity at 70.5 h of 5.77%.
Work on CN1CCCCC1(C)C(=O)N1CCC(c2ccccn2)CC1 (stereo not given) yielded a cytotoxicity at 70.5 h of 14.5%.
With CC(C)(NC(=O)Nc1cnn(CC2CCCO2)c1)c1nccs1 (stereo not given) the cytotoxicity at 70.5 h was -6.03%.
With Cc1noc(C)c1CN(Cc1ccccc1)C(C)C the cytotoxicity at 70.5 h was 12.4%.
For CN1CCOC(CNCc2nc(-c3cccnc3)no2)C1 (stereo not given), the cytotoxicity at 70.5 h was -6.13%.
In the case of c1cc2c(cc1-c1noc3c1CN(C1CCSCC1)CC3)OCO2, the cytotoxicity at 70.5 h is reported as 12.6%.
CC(NCc1cnc(N2CCOCC2)nc1)c1ccc(Cl)s1 (stereo not given) gave a cytotoxicity at 70.5 h of -9.24%.
With O=C(CO)N1CCCn2nnc(Cn3cccn3)c2C1 the cytotoxicity at 70.5 h was 11.5%.
Work on COc1ccc(-n2ccc(CNCc3cccc(OC)c3)n2)cc1 yielded a cytotoxicity at 70.5 h of 23.7%.
Work on Cn1cc(N2C[C@@H]3CN(CC4CCOCC4)C[C@@H]3C2=O)cn1 yielded a cytotoxicity at 70.5 h of 2.05%.
CCn1ccc(-c2cc(C(=O)O)n3ncc(Br)c3n2)n1 showed a cytotoxicity at 70.5 h of -11.6%.
Cc1nc(CN2CCc3ncnc(-c4ccccc4)c3CC2)cs1 showed a cytotoxicity at 70.5 h of -9.56%.
With COc1nc2c(cc1C(=O)NC(C)Cc1cc(C)n[nH]1)CCC2 (stereo not given) the cytotoxicity at 70.5 h was -12%.
Cc1ccnc(C2CN(Cc3cnn(-c4ccccc4C(=O)O)c3)C2)n1 gave a cytotoxicity at 70.5 h of -6.57%.
In the case of Cc1csc([C@@H]2C[C@H]3CN(c4ncc(F)cn4)C[C@H]3O2)n1, the cytotoxicity at 70.5 h is reported as -2.24%.
Work on COc1cccc(C(O)CN2CCN(C(=O)CCC(C)C)CC2)c1 (stereo not given) yielded a cytotoxicity at 70.5 h of 9.11%.
In the case of COc1cccc(Cn2ncnc2CNC(C)=O)c1, the cytotoxicity at 70.5 h is reported as -10.5%.
With Cc1ccc(-c2csc3c(=O)[nH]c(N4CCCC(C(=O)O)C4)nc23)cc1 (stereo not given) the cytotoxicity at 70.5 h was 3.06%.
With Cc1noc(C)c1CNS(=O)(=O)N(C)Cc1ccccc1Br the cytotoxicity at 70.5 h was -9.08%.
Compound CCC(C)[C@H](NC(=O)c1cc(Br)ccc1-n1cnnn1)C(=O)OC (stereo not given in full) has a cytotoxicity at 70.5 h of 42%.
O=C(Cc1c(F)cccc1F)N1CCN(CC(=O)N2CCCC2)CC1 gave a cytotoxicity at 70.5 h of -5.05%.
In the case of O=C(c1ccc(Cn2cc(Br)cn2)cc1)N1CCOCC1, the cytotoxicity at 70.5 h is reported as -7.67%.
O=C(CCOc1cccc(Cl)c1)N1CCN(c2cnccn2)CC1 showed a cytotoxicity at 70.5 h of 22%.
In the case of O=C(CN1CCS(=O)(=O)CC1)NC1CCCOc2ccccc21 (stereo not given), the cytotoxicity at 70.5 h is reported as -3.91%.

From ChEMBL document CHEMBL3507680, “University of Dundee, Gates Library screen for HepG2 cell viability”
